Source: ChEMBL document CHEMBL3880389, “Heterocyclic compounds as inhibitors of the sodium iodide symporter” (2014)

What follows are compounds tested against T1, Sodium/iodide cotransporter (Rattus norvegicus, UniProt Q63008) (assay: Inhibition of sodium iodide symporter in rat FRTL5 cells assessed as decrease in [125I]-sodium iodide uptake after 60 mins by scintillation counting method).
T1 sequence (Q63008 whole entry): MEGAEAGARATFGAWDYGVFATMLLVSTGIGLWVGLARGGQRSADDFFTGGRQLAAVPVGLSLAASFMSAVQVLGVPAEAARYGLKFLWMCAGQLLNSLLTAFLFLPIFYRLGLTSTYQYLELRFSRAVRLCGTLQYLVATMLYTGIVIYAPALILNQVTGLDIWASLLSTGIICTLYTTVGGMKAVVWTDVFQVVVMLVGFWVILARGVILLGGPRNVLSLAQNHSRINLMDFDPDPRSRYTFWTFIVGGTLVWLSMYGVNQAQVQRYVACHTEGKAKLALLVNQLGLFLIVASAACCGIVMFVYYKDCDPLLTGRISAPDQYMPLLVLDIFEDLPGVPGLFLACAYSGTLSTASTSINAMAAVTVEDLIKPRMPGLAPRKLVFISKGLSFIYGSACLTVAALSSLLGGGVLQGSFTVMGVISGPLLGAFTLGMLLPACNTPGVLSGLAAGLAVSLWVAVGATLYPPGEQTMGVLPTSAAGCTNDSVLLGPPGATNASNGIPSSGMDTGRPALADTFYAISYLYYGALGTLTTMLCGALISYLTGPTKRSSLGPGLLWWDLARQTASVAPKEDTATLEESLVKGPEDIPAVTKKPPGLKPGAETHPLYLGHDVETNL
Assay type: cell-based, FRTL-5

| IC50 | SMILES |
| --- | --- |
| 0.3 µM | O=[N+]([O-])c1cccc(C2NCCc3c2[nH]c2ccccc32)c1 (configuration not stated) |
| 0.4 µM | Brc1cccc(C2NCCc3c2[nH]c2ccccc32)c1 (configuration not stated) |

What follows are compounds tested against T1, Sodium/iodide cotransporter (assay: Inhibition of sodium iodide symporter in rat FRTL5 cells assessed as decrease in sodium iodide uptake after 60 mins by scintillation counting method).
Assay type: cell-based, FRTL-5

| SMILES | IC50 |
| --- | --- |
| F[B-](F)(F)F | 0.75 µM |
| O=[N+]([O-])O | 250 µM |
| F[P-](F)(F)(F)(F)F.[Na+] | 0.009 µM |
| [O-][Cl+3]([O-])([O-])O [PERCHLORATE] | 0.14 µM |
| N#CS [THIOCYANIC ACID] | 14 µM |
